Assay results reported in US20250351832A1, “PHYTOCHEMICALS AS BIOPESTICIDES AND BIOSTIMULANTS” (KAY BEE BIO ORGANICS PVT. LTD., priority 2024, published 2025).
Where two headings read alike, the source gives them in different places.

Assays:
Alternaria alternata [1] = assay: In vitro poisoned food technique against fungus (Ex. 20); type: cell-based; conditions: poisoned food technique, PDA medium, dose 1 ml/gm/lit., after seven days
Alternaria alternata [2] = assay: Alternaria leaf spot/blight on inoculated tomato plants (Ex. 28); type: in vivo; conditions: tomato plants, Alternaria alternata; after 7 days; dose 1 ml/gm/lit
tomato seedlings = assay: Response of tomato plants, greenhouse growth (Ex. 30); type: in vivo; conditions: tomato seedlings, dose 1 ml/gm/lit
chili seedlings = assay: Response of chili plants, greenhouse growth (Ex. 31); type: in vivo; conditions: chili seedlings, dose 1 ml/gm/lit
Aphid [3] = conditions: Dose 1 ml/gm/lit.
Mite [4] = conditions: Dose 1 ml/gm/lit.
Mealy Bug [5] = conditions: Mealy Bug on cotton leaves, dose 1 ml/gm/lit., 48 Hrs.
Helicoverpa armigera [6] = conditions: Helicoverpa armigera on okra fruits, dose 1 ml/gm/lit., 72 Hrs.
Spodoptera litura [7] = conditions: Spodoptera litura on castor leaves, dose 1 ml/gm/lit.
Thrips [8] = conditions: Thrips on cotton leaves, dose 1 ml/gm/lit.
Aphid [9] = conditions: Aphids on cotton plants, green house, dose 1 ml/gm/lit.
Mite [10] = conditions: mite on okra plants, green house, dose 1 ml/gm/lit. spray
Mealy Bug [11] = conditions: mealy bug on cotton plants, green house, dose 1 ml/gm/lit. spray
Helicoverpa armigera [12] = conditions: Helicoverpa armigera 3rd instar on chickpea plants, dose 1 ml/gm/lit. spray
Spodoptera litura [13] = conditions: Spodoptera litura 3rd instar on cabbage plants, dose 1 ml/gm/lit. spray
Thrips [14] = conditions: thrips on cotton plants, greenhouse, dose 1 ml/gm/lit. spray
[15] = Table 13, descriptive; no test described; cited from earlier work
[16] = 10 insects/treatment, 4 replications
[17] = 72 hrs, corrected for water control
[18] = 48 hrs, corrected for water control

With Parthenin as the substance, how does the “Mean colony Diameter (mm)” value (Alternaria alternata [1]) read?
Its value is 78.00 mm.

What about the “% Inhibition of growth” value (Alternaria alternata [1]; vs untreated control) of the same substance?
The value was 11.36%.

What about the “% Disease reduction over Control” value (Alternaria alternata [2]) of the same substance?
The value was 43.80%.

And the “Plant Height 5th Day” value (tomato seedlings; 5th day after application)?
Its value is 6.64 cm.

And the “Stem Girth 5th Day” value (tomato seedlings; 5th day after application)?
Its value is 1.66 mm.

And the “Plant Height 10th Day” value (tomato seedlings; 10th day after application)?
The value was 7.29 cm.

What about the “Stem Girth 10th Day” value (tomato seedlings; 10th day after application) of the same substance?
The value was 2.22 mm.

And the “Plant Height % Increase over pre on 10th Day” value (tomato seedlings; 10th day)?
Its value is 29.95%.

And the “Stem Girth % Increase over pre on 10th Day” value (tomato seedlings; 10th day)?
Its value is 55.53%.

And the “Plant Height Pre” value (tomato seedlings; before application)?
The value was 5.61 cm.

What about the “Stem Girth Pre” value (tomato seedlings; before application) of the same substance?
The value was 1.43 mm.

What about the “CCI 5th Day” value (tomato seedlings; 5th day after application) of the same substance?
The value was 13.95.

What about the “CCI % Increase over pre on 10th Day” value (tomato seedlings; 10th day) of the same substance?
Its value is 20.70%.

And the “Root Length (cm) 10th Day” value (tomato seedlings; 10th day)?
Its value is 4.05 cm.

What about the “CCI 10th Day” value (tomato seedlings; 10th day after application) of the same substance?
The value was 14.87.

What about the “Root Length % Increase over control” value (tomato seedlings; 10th day, vs water control) of the same substance?
Its value is 21.63%.

What about the “CCI Pre” value (tomato seedlings; pre-application baseline) of the same substance?
The value was 12.32.

And the “CCI 5th Day” value (chili seedlings; 5th day after application)?
The value was 14.50.

And the “Plant Height (cm) 5th Day” value (chili seedlings; 5th day after application)?
Its value is 6.13 cm.

And the “CCI % Increase over pre on 10th Day” value (chili seedlings; 10th day)?
The value was 74.40%.

And the “Plant Height % Increase over pre on 10th Day” value (chili seedlings; 10th day)?
The value was 52.29%.

And the “Root Lenght (cm) 10th Day” value (chili seedlings; 10th day)?
The value was 3.12 cm.

And the “Stem Girth % Increase over pre on 10th Day” value (chili seedlings; 10th day)?
The value was 38.18%.

What about the “CCI 10th Day” value (chili seedlings; 10th day after application) of the same substance?
The value was 15.87.

And the “Plant Height (cm) 10th Day” value (chili seedlings; 10th day after application)?
Its value is 6.65 cm.

What about the “Root Lenght % Increase over control” value (chili seedlings; 10th day, vs water control) of the same substance?
The value was 14.01%.

And the “CCI Pre” value (chili seedlings; pre-application baseline)?
The value was 9.10.

And the “Plant Height (cm) Pre” value (chili seedlings; pre-application baseline)?
The value was 4.37 cm.

What about the “Total No. of dead insect at 48 Hrs.” value (Aphid [3]; 10 insects/treatment, 4 replications, cotton leaves) of the same substance?
The value was 6.00.

And the “% Corrected Mortality at 48 Hrs.” value (Aphid [3]; 48 hrs)?
Its value is 54.29%.

And the “% Mortality at 48 Hrs.” value (Aphid [3]; 48 hrs)?
Its value is 60.00%.

What about the “Total No. of dead insect at 48 Hrs.” value (Mite [4]; 10 insects/treatment, 4 replications, okra leaves) of the same substance?
Its value is 3.25.

And the “% Corrected Mortality at 48 Hrs.” value (Mite [4]; 48 hrs)?
The value was 27.03%.

And the “% Mortality at 48 Hrs.” value (Mite [4]; 48 hrs)?
Its value is 32.50%.

And the “Total No. of dead insect at 48 Hrs.” value (Mealy Bug [5]; [16])?
The value was 4.75.

And the “% Mortality at 48 Hrs.” value (Mealy Bug [5])?
Its value is 47.50%.

And the “% Corrected Mortality at 48 Hrs.” value (Mealy Bug [5]; corrected for water control)?
The value was 44.74%.

What about the “Total No. of dead insect at 72 Hrs.” value (Helicoverpa armigera [6]; [16]) of the same substance?
Its value is 3.25.

And the “% Mortality at 72 Hrs.” value (Helicoverpa armigera [6])?
The value was 32.50%.

And the “% Corrected Mortality at 72 Hrs.” value (Helicoverpa armigera [6]; corrected for water control)?
The value was 32.50%.

What about the “Total No. of dead insect at 72 Hrs.” value (Spodoptera litura [7]; 10 insects/treatment, 72 hrs after application) of the same substance?
Its value is 2.75.

And the “% Mortality at 72 Hrs.” value (Spodoptera litura [7]; 72 hrs after application)?
Its value is 27.50%.

And the “% Corrected Mortality at 72 Hrs.” value (Spodoptera litura [7]; [17])?
The value was 23.68%.

And the “Total No. of dead insect at 48 Hrs.” value (Thrips [8]; 10 insects/treatment, 48 hrs after application)?
The value was 4.75.

And the “% Mortality at 48 Hrs.” value (Thrips [8]; 48 hrs after application)?
The value was 47.50%.

And the “% Corrected Mortality at 48 Hrs.” value (Thrips [8]; [18])?
Its value is 40.00%.

What about the “Total No. of dead insect at 48 Hrs.” value (Aphid [9]; 10 insects/plant, 10 plants/treatment, 48 hrs) of the same substance?
Its value is 57.50.

And the “% Mortality at 48 Hrs.” value (Aphid [9]; 48 hrs after application)?
Its value is 57.50%.

What about the “% Corrected Mortality at 48 Hrs.” value (Aphid [9]; [18]) of the same substance?
Its value is 50.00%.

And the “% Mortality at 48 Hrs.” value (Mite [10]; 48 hrs after application)?
The value was 22.50%.

What about the “Total No. of dead insect at 48 Hrs.” value (Mite [10]; 48 hrs after application) of the same substance?
Its value is 22.50.

And the “% Corrected Mortality at 48 Hrs.” value (Mite [10]; [18])?
The value was 18.42%.

And the “% Mortality at 48 Hrs.” value (Mealy Bug [11]; 48 hrs after application)?
Its value is 50.00%.

And the “Total No. of dead insect at 48 Hrs.” value (Mealy Bug [11]; 48 hrs after application)?
Its value is 50.00.

And the “% Corrected Mortality at 48 Hrs.” value (Mealy Bug [11]; [18])?
The value was 44.44%.

What about the “% Mortality at 72 Hrs.” value (Helicoverpa armigera [12]; 72 hrs after application) of the same substance?
The value was 35.00%.

What about the “% Corrected Mortality at 72 Hrs.” value (Helicoverpa armigera [12]; [17]) of the same substance?
Its value is 35.00%.

And the “% Mortality at 72 Hrs.” value (Spodoptera litura [13]; 72 hrs after application)?
The value was 27.50%.

And the “% Corrected Mortality at 72 Hrs.” value (Spodoptera litura [13]; [17])?
The value was 23.68%.

And the “% Mortality at 48 Hrs.” value (Thrips [14]; 48 hrs after application)?
The value was 45.00%.

And the “Total No. of dead insect at 48 Hrs.” value (Thrips [14]; 48 hrs after application)?
The value was 45.00.

And the “% Corrected Mortality at 48 Hrs.” value (Thrips [14]; [18])?
Its value is 38.89%.

What about the “Antioxidant Activity - Mode of action” value [15] of the same substance?
The value was “Possesses antioxidant”.

What about the “Insecticidal Activities - Mode of action” value [15] of the same substance?
Its value is “Antifeedant activity against”.
